Experimental data published in patent publication US20120295907A1, “INSECTICIDAL COMPOUNDS” (SYNGENTA CROP PROTECTION, LLC, priority 2009, published 2012).

Experiments:
Assay type in all cases: in vivo
Spodoptera littoralis = Spodoptera littoralis (Egyptian Cotton Leafworm) cotton leaf disc spray test; details: foliar, 72 h, 200 ppm spray on cotton leaf discs, L1 larvae, mortality, feeding behavior, growth regulation 3 DAT
Heliothis virescens = Heliothis virescens (Tobacco Budworm) egg test on artificial diet; details: 96 h, 200 ppm (concentration in well 18 ppm), eggs 0-24 h old on artificial diet, 4 days, egg mortality, larval mortality, growth regulation
Plutella xylostella = Plutella xylostella (Diamond Back Moth) artificial diet MTP test; details: 144 h, 200 ppm (concentration in well 18 ppm), L2 larvae, 6 days, larval mortality, growth regulation
Diabrotica balteata = Diabrotica balteata (Corn Root Worm) artificial diet MTP test; details: 120 h, 200 ppm (concentration in well 18 ppm), L2 larvae, 5 days, larval mortality, growth regulation
Thrips tabaci = Thrips tabaci (Onion Thrips) sunflower leaf disc spray test; details: foliar, 168 h, 200 ppm spray on sunflower leaf discs, population of mixed ages, 7 days, mortality
Tetranychus urticae = Tetranychus urticae (Two-Spotted Spider Mite) bean leaf disc spray test; details: foliar, 192 h, 200 ppm spray on bean leaf discs, mite populations of mixed ages, 8 days, egg, larval and adult mortality, read-out: control of Tetranychus urticae
Myzus persicae = Myzus persicae (Green Peach Aphid) sunflower leaf disc spray test; details: foliar, 144 h, 200 ppm spray on sunflower leaf discs, aphid population of mixed ages, 6 DAT, mortality

Measured: pest or weed control at 200 ppm

COc1c(NC(=O)c2ccc(SC)cc2)cccc1C(=O)Nc1c(Cl)cc(C(F)(C(F)(F)F)C(F)(F)C(F)(F)F)cc1Br (stereo not drawn) [B26]
≥ 80%: all assays above

COc1c(NC(=O)c2ccccc2Br)cccc1C(=O)Nc1c(Cl)cc(C(F)(C(F)(F)F)C(F)(F)C(F)(F)F)cc1Br (stereo not drawn) [B36]
≥ 80%: all assays above

COc1c(NC(=O)c2cc(C)nn2C)cccc1C(=O)Nc1c(Cl)cc(C(F)(C(F)(F)F)C(F)(F)C(F)(F)F)cc1Br (stereo not drawn) [B42]
≥ 80%: all assays above

COc1c(NC(=O)c2ccncc2Cl)cccc1C(=O)Nc1c(Cl)cc(C(F)(C(F)(F)F)C(F)(F)C(F)(F)F)cc1Br (stereo not drawn) [B66]
≥ 80%: all assays above

COc1c(NC(=O)c2ccccc2[N+](=O)[O-])cccc1C(=O)Nc1c(Cl)cc(C(F)(C(F)(F)F)C(F)(F)C(F)(F)F)cc1Br (stereo not drawn) [B80]
≥ 80%: all assays above

COc1c(NC(=O)c2ccncc2C)cccc1C(=O)Nc1c(Cl)cc(C(F)(C(F)(F)F)C(F)(F)C(F)(F)F)cc1Br (stereo not drawn) [B82]
≥ 80%: all assays above

COc1c(NC(=O)c2ccnc(C)c2Cl)cccc1C(=O)Nc1c(Cl)cc(C(F)(C(F)(F)F)C(F)(F)C(F)(F)F)cc1Br (stereo not drawn) [B93]
≥ 80%: all assays above

COc1c(NC(=O)c2cncnc2)cccc1C(=O)Nc1c(Cl)cc(C(F)(C(F)(F)F)C(F)(F)C(F)(F)F)cc1Br (stereo not drawn) [B111]
≥ 80%: all assays above

COc1c(NC(=O)c2ccnc(F)c2)cccc1C(=O)Nc1c(Cl)cc(C(F)(C(F)(F)F)C(F)(F)C(F)(F)F)cc1Br (stereo not drawn) [B151]
≥ 80%: all assays above

COc1c(NC(=O)c2cc(F)ccc2F)cccc1C(=O)Nc1c(Cl)cc(C(F)(C(F)(F)F)C(F)(F)C(F)(F)F)cc1Br (stereo not drawn) [B153]
≥ 80%: all assays above

COc1c(NC(=O)c2ccc(Cl)cc2Cl)cccc1C(=O)Nc1c(Cl)cc(C(F)(C(F)(F)F)C(F)(F)C(F)(F)F)cc1Br (stereo not drawn) [B155]
≥ 80%: all assays above

COc1c(NC(=O)c2cccc(Cl)c2C)cccc1C(=O)Nc1c(Cl)cc(C(F)(C(F)(F)F)C(F)(F)C(F)(F)F)cc1Br (stereo not drawn) [B156]
≥ 80%: all assays above

COc1c(NC(=O)c2cc(F)cc(F)c2)cccc1C(=O)Nc1c(Cl)cc(C(F)(C(F)(F)F)C(F)(F)C(F)(F)F)cc1Br (stereo not drawn) [B168]
≥ 80%: all assays above

COc1c(NC(=O)c2ccc([N+](=O)[O-])c(N)c2)cccc1C(=O)Nc1c(Cl)cc(C(F)(C(F)(F)F)C(F)(F)C(F)(F)F)cc1Br (stereo not drawn) [B174]
≥ 80%: all assays above

COc1c(NC(=O)c2ccccc2C)cccc1C(=O)Nc1c(Cl)cc(C(F)(C(F)(F)F)C(F)(F)C(F)(F)F)cc1Cl (stereo not drawn) [C4]
≥ 80%: all assays above

COc1c(NC(=O)c2ccccc2Cl)cccc1C(=O)Nc1c(Cl)cc(C(F)(C(F)(F)F)C(F)(F)C(F)(F)F)cc1Cl (stereo not drawn) [C5]
≥ 80%: all assays above

COc1c(NC(=O)c2ccc(C#N)cc2)cccc1C(=O)Nc1c(Cl)cc(C(F)(C(F)(F)F)C(F)(F)C(F)(F)F)cc1Cl (stereo not drawn) [C6]
≥ 80%: all assays above

COc1c(NC(=O)c2ccc(C)cc2)cccc1C(=O)Nc1c(Cl)cc(C(F)(C(F)(F)F)C(F)(F)C(F)(F)F)cc1Cl (stereo not drawn) [C8]
≥ 80%: all assays above

COc1c(NC(=O)c2ccc(F)cc2)cccc1C(=O)Nc1c(Cl)cc(C(F)(C(F)(F)F)C(F)(F)C(F)(F)F)cc1Cl (stereo not drawn) [C19]
≥ 80%: all assays above

COc1c(NC(=O)c2ccc(C#N)cc2)cccc1C(=O)Nc1c(Cl)cc(C(F)(C(F)(F)F)C(F)(F)F)cc1Cl [E4]
≥ 80%: all assays above

COc1c(NC(=O)c2ccc([N+](=O)[O-])cc2)cccc1C(=O)Nc1c(Cl)cc(C(F)(C(F)(F)F)C(F)(F)F)cc1Cl [E5]
≥ 80%: all assays above

COc1c(NC(=O)c2ccc([N+](=O)[O-])cc2Cl)cccc1C(=O)Nc1c(Cl)cc(C(F)(C(F)(F)F)C(F)(F)F)cc1Cl [E9]
≥ 80%: all assays above

COc1c(NC(=O)c2ccc(C(F)(F)F)cc2)cccc1C(=O)Nc1c(Cl)cc(C(F)(C(F)(F)F)C(F)(F)F)cc1Cl [E13]
≥ 80%: all assays above

COc1c(NC(=O)c2ccc(F)cc2)cccc1C(=O)Nc1c(Cl)cc(C(F)(C(F)(F)F)C(F)(F)F)cc1Cl [E17]
≥ 80%: all assays above
